24 compounds from US12583854B2, “KRAS G12C inhibitors and methods of using the same” (Amgen Inc., priority 2018, dated 2026) can be followed below.

Molecules are shown by their SMILES.

The experiment concerns the target GDP-bound KRAS protein (aa 1-169), containing both G12C and C118A amino acid substitutions (Homo sapiens, UniProt P01116, C118A/G12C). The experiment can be described thus: Coupled Nucleotide Exchange Assay. It counts as biochemical. The settings on record: 5 min compound pre-incubation; SOS-mediated nucleotide exchange, AlphaScreen. As for the experimental part:
Following compound pre-incubation, purified SOS protein (aa 564-1049) and GTP (Roche 10106399001) were added to the assay wells and incubated for an additional 30 min. To determine the extent of inhibition of SOS-mediated nucleotide exchange, purified GST-tagged cRAF (aa 1-149), nickel chelate AlphaLISA acceptor beads (PerkinElmer AL108R), and AlphaScreen glutathione donor beads (PerkinElmer 6765302) were added to the assay wells and incubated for 10 minutes. The assay plates were then read on a PerkinElmer EnVision Multilabel Reader, using AlphaScreen® technology, and data were analyzed using a 4-parameter logistic model to calculate IC50 values.

Sequence of GDP-bound KRAS protein (aa 1-169), containing both G12C and C118A amino acid substitutions (P01116 1-169 isoform P01116-2 G12C/C118A): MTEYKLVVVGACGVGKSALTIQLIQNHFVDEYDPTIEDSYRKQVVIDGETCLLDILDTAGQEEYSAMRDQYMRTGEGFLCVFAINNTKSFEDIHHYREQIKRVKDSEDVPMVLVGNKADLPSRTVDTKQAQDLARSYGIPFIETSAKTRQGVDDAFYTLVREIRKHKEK

In the case of `C=CC(=O)N1CCN(c2c(C#N)c(=O)n(-c3c(C)ccnc3C(C)C)c3nc(-c4ccccc4F)c(Cl)cc23)C[C@H]1C` (single isomer, unassigned) [Example 6.6], the “Coupled exchange IC50 (5 min; μM)” value was 0.92 µM.
Then `C=CC(=O)N1C[C@H](C)N(c2c(C#N)c(=O)n(-c3c(C)ccnc3C(C)C)c3nc(-c4ccccc4F)c(Cl)cc23)C[C@H]1C` (single isomer, unassigned) [Example 7.4], with 17.6 µM.
Then `C=CC(=O)N1C[C@H](C)N(c2c(C#N)c(=O)n(-c3c(C)ccnc3C(C)C)c3nc(-c4ccccc4F)c(Cl)cc23)C[C@H]1C` (single isomer, unassigned) [Example 7.5], with 2.27 µM; and `C=CC(=O)N1[C@H](C)CN(c2c(C#N)c(=O)n(-c3c(C)ccnc3C(C)C)c3nc(-c4ccccc4F)c(Cl)cc23)C[C@@H]1C` (single isomer, unassigned) [Example 7.6], with 0.32 µM.
The same measure for `C=CC(=O)N1CCN(c2c(C#N)c(=O)n(-c3c(N(C)C)ccnc3C(C)C)c3nc(-c4ccccc4F)c(Cl)cc23)CC1` (single isomer, unassigned) [Example 8.3, 4-(4-acryloylpiperazin-1-yl)-6-chloro-1-(4-(dimethylamino)-2-isopropylpyridin-3-yl)-7-(2-fluorophenyl)-2-oxo-1,2-dihydro-1,8-naphthyridine-3-carbonitrile]: 0.42 µM; for `C=CC(=O)N1CCN(c2c(C#N)c(=O)n(-c3c(N(C)C)ccnc3C(C)C)c3nc(-c4ccccc4F)c(Cl)cc23)CC1` (single isomer, unassigned) [Example 8.5, 4-(4-acryloylpiperazin-1-yl)-6-chloro-1-(4-(dimethylamino)-2-isopropylpyridin-3-yl)-7-(2-fluorophenyl)-2-oxo-1,2-dihydro-1,8-naphthyridine-3-carbonitrile]: 3.26 µM; for `C=CC(=O)N1CCN(c2c(C#N)c(=O)n(-c3c(C(C)C)ccnc3N(C)C)c3nc(-c4ccccc4F)c(Cl)cc23)CC1` (single isomer, unassigned) [Example 8.7, 4-(4-acryloylpiperazin-1-yl)-6-chloro-1-(2-(dimethylamino)-4-isopropylpyridin-3-yl)-7-(2-fluorophenyl)-2-oxo-1,2-dihydro-1,8-naphthyridine-3-carbonitrile]: 1.55 µM.
Turning to `C=CC(=O)N1CCN(c2c(C#N)c(=O)n(-c3c(C)ccnc3C(C)C)c3nc(-c4ccccc4C)c(Cl)cc23)CC1` (single isomer, unassigned) [Example 11, 4-(4-Acryloylpiperazin-1-yl)-6-chloro-1-(2-isopropyl-4-methylpyridin-3-yl)-2-oxo-7-(o-tolyl)-1,2-dihydro-1,8-naphthyridine-3-carbonitrile], the “Coupled exchange IC50 (5 min; μM)” value amounted to 0.71 µM.
The same measure for `C=CC(=O)N1CCN(c2c(C#N)c(=O)n(-c3c(C)ccnc3C(C)C)c3nc(-c4ccccc4C(C)C)c(Cl)cc23)CC1` (single isomer, unassigned) [Example 11.2, 4-(4-acryloylpiperazin-1-yl)-6-chloro-1-(2-isopropyl-4-methylpyridin-3-yl)-7-(2-isopropylphenyl)-2-oxo-1,2-dihydro-1,8-naphthyridine-3-carbonitrile]: 1.96 µM; for `C=CC(=O)N1CCN(c2c(C#N)c(=O)n(-c3c(C(C)C)ncnc3C(C)C)c3nc(-c4ccccc4CN(C)C)c(Cl)cc23)CC1` [Example 1, 4-(4-Acryloylpiperazin-1-yl)-6-chloro-1-(4,6-diisopropylpyrimidin-5-yl)-7-(2-((dimethylamino)methyl)phenyl)-2-oxo-1,2-dihydro-1,8-naphthyridine-3-carbonitrile]: 4.13 µM.
The same measure for `C=CC(=O)N1CCN(c2c(C#N)c(=O)n(-c3c(CN(C)C)ccnc3C(C)C)c3nc(-c4ccccc4F)c(Cl)cc23)CC1` [Example 2, 4-(4-Acryloylpiperazin-1-yl)-6-chloro-1-(4-((dimethylamino)methyl)-2-isopropylpyridin-3-yl)-7-(2-fluorophenyl)-2-oxo-1,2-dihydro-1,8-naphthyridine-3-carbonitrile]: 0.061 µM; for `C=CC(=O)N1CCN(c2c(C#N)c(=O)n(-c3c(CN(C)C)ccnc3C(C)C)c3nc(-c4ccccc4F)c(Cl)cc23)CC1` [Example 2.1, 4-(4-acryloylpiperazin-1-yl)-6-chloro-1-(4-((dimethylamino)methyl)-2-isopropylpyridin-3-yl)-7-(2-fluorophenyl)-2-oxo-1,2-dihydro-1,8-naphthyridine-3-carbonitrile]: 0.18 µM; for `C=CC(=O)N1CCN(c2c(C#N)c(=O)n(-c3c(CN(C)C)ccnc3C(C)C)c3nc(-c4ccccc4F)c(Cl)cc23)CC1` [Example 2.2, 4-(4-acryloylpiperazin-1-yl)-6-chloro-1-(4-((dimethylamino)methyl)-2-isopropylpyridin-3-yl)-7-(2-fluorophenyl)-2-oxo-1,2-dihydro-1,8-naphthyridine-3-carbonitrile]: 5.71 µM.
`C=CC(=O)N1CCN(c2c(C#N)c(=O)n(-c3c(C)ccnc3C(C)C)c3nc(-c4ccccc4F)c(Cl)cc23)C[C@@H]1C` [Example 6.1, (S)-4-(4-acryloyl-3-methylpiperazin-1-yl)-6-chloro-7-(2-fluorophenyl)-1-(2-isopropyl-4-methylpyridin-3-yl)-2-oxo-1,2-dihydro-1,8-naphthyridine-3-carbonitrile]: the “Coupled exchange IC50 (5 min; μM)” value was 1.57 µM.
Then `C=CC(=O)N1CCN(c2c(C#N)c(=O)n(-c3c(C)ccnc3C(C)C)c3nc(-c4ccccc4F)c(Cl)cc23)CC1` [Example 6.4, 4-(4-acryloylpiperazin-1-yl)-6-chloro-7-(2-fluorophenyl)-1-(2-isopropyl-4-methylpyridin-3-yl)-2-oxo-1,2-dihydro-1,8-naphthyridine-3-carbonitrile], with 0.73 µM.
Consider `C=CC(=O)N1CCN(c2c(C#N)c(=O)n(-c3c(C(C)C)ccnc3C(C)C)c3nc(Cl)c(F)cc23)CC1` [Example 9, 4-(4-Acryloylpiperazin-1-yl)-7-chloro-1-(2,4-diisopropylpyridin-3-yl)-6-fluoro-2-oxo-1,2-dihydro-1,8-naphthyridine-3-carbonitrile], for which the “Coupled exchange IC50 (5 min; μM)” value was found to be 82.1 µM.
Then `C=CC(=O)N1CCN(c2c(C#N)c(=O)n(-c3c(C(C)C)ncnc3C(C)C)c3nc(Cl)c(Cl)cc23)CC1` [Example 9.1, 4-(4-acryloylpiperazin-1-yl)-6,7-dichloro-1-(4,6-diisopropylpyrimidin-5-yl)-2-oxo-1,2-dihydro-1,8-naphthyridine-3-carbonitrile], with 25.1 µM; and `C=CC(=O)N1CCN(c2c(C#N)c(=O)n(-c3c(C)ccnc3C(C)C)c3nc(Cl)c(Cl)cc23)CC1` [Example 9.2, 4-(4-acryloylpiperazin-1-yl)-6,7-dichloro-1-(2-isopropyl-4-methylpyridin-3-yl)-2-oxo-1,2-dihydro-1,8-naphthyridine-3-carbonitrile], with 36 µM; and `C=CC(=O)N1CCN(c2c(C#N)c(=O)n(-c3c(C(C)C)ccnc3C(C)C)c3nc(-c4ccccc4C)c(F)cc23)CC1` [Example 10, 4-(4-Acryloylpiperazin-1-yl)-1-(2,4-diisopropylpyridin-3-yl)-6-fluoro-2-oxo-7-(o-tolyl)-1,2-dihydro-1,8-naphthyridine-3-carbonitrile], with 0.94 µM.
Then `C=CC(=O)N1CCN(c2c(C#N)c(=O)n(-c3c(C(C)C)ccnc3C(C)C)c3nc(-c4ccccc4F)c(F)cc23)CC1` [Example 10.1, 4-(4-acryloylpiperazin-1-yl)-1-(2,4-diisopropylpyridin-3-yl)-6-fluoro-7-(2-fluorophenyl)-2-oxo-1,2-dihydro-1,8-naphthyridine-3-carbonitrile], with 0.65 µM; and `C=CC(=O)N1CCN(c2c(C#N)c(=O)n(-c3c(C(C)C)ccnc3C(C)C)c3nc(-c4ccccc4C)c(F)cc23)CC1` [Example 10.2, 4-(4-acryloylpiperazin-1-yl)-1-(2,4-diisopropylpyridin-3-yl)-6-fluoro-2-oxo-7-(o-tolyl)-1,2-dihydro-1,8-naphthyridine-3-carbonitrile], with 0.45 µM; and `C=CC(=O)N1CCN(c2c(C#N)c(=O)n(-c3c(C(C)C)ccnc3C(C)C)c3nc(-c4ccccc4C)c(F)cc23)CC1` [Example 10.3, 4-(4-acryloylpiperazin-1-yl)-1-(2,4-diisopropylpyridin-3-yl)-6-fluoro-2-oxo-7-(o-tolyl)-1,2-dihydro-1,8-naphthyridine-3-carbonitrile], with 0.83 µM.
In the case of `C=CC(=O)N1CCN(c2c(C#N)c(=O)n(-c3c(C(C)C)ccnc3C(C)C)c3nc(-c4ccccc4F)c(F)cc23)CC1` [Example 10.4, 4-(4-acryloylpiperazin-1-yl)-1-(2,4-diisopropylpyridin-3-yl)-6-fluoro-7-(2-fluorophenyl)-2-oxo-1,2-dihydro-1,8-naphthyridine-3-carbonitrile], the “Coupled exchange IC50 (5 min; μM)” value was found to be 0.44 µM.
With `C=CC(=O)N1CCN(c2c(C#N)c(=O)n(-c3c(C(C)C)ccnc3C(C)C)c3nc(-c4ccccc4F)c(F)cc23)CC1` [Example 10.5, 4-(4-acryloylpiperazin-1-yl)-1-(2,4-diisopropylpyridin-3-yl)-6-fluoro-7-(2-fluorophenyl)-2-oxo-1,2-dihydro-1,8-naphthyridine-3-carbonitrile], the “Coupled exchange IC50 (5 min; μM)” value was determined as 0.36 µM.
